Experimental findings from ChEMBL document CHEMBL5465560, “Selectivity Literature for EUbOPEN Chemogenomic Library” (2024) are described below.

Structures are written as SMILES.

For test [1], the target named is Macrophage colony-stimulating factor 1 receptor (Homo sapiens) (UniProt P07333). Description: Selectivity interaction (KinomeScan (DiscoverX)) EUB0000666a CSF1R. The note with it: at 10 µM.
Test [2] has as its target Tyrosine-protein kinase ABL1 (Homo sapiens, UniProt P00519). The test is described as follows: Selectivity interaction (KinaseProfiler screening (Millipore)) EUB0000601a ABL1. To be noted: at 3 µM.
Test [3] has as its target Mitogen-activated protein kinase kinase kinase 8 (Homo sapiens, UniProt P41279). The test is described as follows: Selectivity interaction (Kinase panel (Invitrogen)) EUB0000639a MAP3K8. To be noted: at 200 nM.
Test [4] concerns the target T1, N-lysine methyltransferase KMT5A (Homo sapiens) (UniProt Q9NQR1).
T1 sequence (whole entry): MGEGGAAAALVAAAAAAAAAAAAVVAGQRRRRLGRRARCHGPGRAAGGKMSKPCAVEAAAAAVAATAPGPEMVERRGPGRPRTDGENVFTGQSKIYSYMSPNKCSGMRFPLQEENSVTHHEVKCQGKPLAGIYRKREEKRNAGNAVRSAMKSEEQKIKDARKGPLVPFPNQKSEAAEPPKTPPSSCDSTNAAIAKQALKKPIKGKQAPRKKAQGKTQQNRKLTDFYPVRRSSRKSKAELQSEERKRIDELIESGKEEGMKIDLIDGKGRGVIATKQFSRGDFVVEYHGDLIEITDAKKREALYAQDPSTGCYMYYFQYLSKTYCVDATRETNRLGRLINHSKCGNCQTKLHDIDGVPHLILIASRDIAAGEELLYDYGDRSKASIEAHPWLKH
To be noted: at 1 µM.

Test [5] has as its target T2, Protein kinase C epsilon type (Homo sapiens) (UniProt Q02156).
T2 sequence (whole entry): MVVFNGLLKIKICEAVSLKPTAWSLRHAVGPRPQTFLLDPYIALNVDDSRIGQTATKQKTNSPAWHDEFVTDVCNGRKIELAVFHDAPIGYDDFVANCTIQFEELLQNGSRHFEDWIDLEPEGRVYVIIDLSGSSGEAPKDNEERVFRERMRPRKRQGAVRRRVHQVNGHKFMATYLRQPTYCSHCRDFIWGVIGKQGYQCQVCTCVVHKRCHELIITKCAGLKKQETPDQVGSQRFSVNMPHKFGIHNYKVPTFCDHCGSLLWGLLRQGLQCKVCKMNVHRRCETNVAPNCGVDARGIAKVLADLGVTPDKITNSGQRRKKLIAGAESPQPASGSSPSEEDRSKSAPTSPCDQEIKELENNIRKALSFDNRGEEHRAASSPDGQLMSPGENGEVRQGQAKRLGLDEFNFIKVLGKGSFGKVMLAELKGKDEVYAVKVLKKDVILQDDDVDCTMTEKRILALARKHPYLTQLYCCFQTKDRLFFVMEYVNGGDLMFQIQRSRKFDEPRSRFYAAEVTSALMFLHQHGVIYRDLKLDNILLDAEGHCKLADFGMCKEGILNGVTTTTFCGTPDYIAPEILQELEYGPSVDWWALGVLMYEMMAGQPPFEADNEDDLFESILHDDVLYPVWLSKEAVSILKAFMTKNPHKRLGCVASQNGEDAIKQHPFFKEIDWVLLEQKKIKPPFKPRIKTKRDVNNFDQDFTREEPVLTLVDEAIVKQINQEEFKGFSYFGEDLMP
The test is described as follows: Selectivity interaction (KinomeScan (DiscoverX)) EUB0000045b PRKCE.

For test [6], the target named is T3, Ephrin type-B receptor 4 (Homo sapiens) (UniProt P54760).
T3 sequence (whole entry): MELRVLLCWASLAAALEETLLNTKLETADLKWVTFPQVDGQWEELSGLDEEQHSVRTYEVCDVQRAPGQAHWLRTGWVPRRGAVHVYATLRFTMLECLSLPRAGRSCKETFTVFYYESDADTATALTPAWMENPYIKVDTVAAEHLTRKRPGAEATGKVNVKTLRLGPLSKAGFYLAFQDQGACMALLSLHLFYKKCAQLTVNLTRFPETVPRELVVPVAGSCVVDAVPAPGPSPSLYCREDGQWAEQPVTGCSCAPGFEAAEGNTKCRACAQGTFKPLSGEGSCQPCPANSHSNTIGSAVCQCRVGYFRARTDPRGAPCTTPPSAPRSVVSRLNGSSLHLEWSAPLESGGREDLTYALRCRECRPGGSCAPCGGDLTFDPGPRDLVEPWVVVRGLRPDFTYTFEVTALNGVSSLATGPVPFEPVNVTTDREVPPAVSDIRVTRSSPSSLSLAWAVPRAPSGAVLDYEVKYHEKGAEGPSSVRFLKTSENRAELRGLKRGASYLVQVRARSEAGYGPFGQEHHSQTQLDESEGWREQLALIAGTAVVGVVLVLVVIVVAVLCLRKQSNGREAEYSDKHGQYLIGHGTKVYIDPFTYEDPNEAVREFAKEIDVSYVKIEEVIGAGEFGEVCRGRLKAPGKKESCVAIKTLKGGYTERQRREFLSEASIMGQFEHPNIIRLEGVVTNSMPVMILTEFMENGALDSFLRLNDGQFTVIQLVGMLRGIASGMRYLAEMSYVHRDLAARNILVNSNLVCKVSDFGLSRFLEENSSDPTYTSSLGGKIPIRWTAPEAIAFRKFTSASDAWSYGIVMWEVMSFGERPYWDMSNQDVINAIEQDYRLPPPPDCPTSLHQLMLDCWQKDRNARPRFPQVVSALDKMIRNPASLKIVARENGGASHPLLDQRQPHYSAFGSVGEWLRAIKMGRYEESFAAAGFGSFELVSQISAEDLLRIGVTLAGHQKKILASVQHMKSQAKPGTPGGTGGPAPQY
The test is described as follows: Selectivity interaction (KinomeScan (DiscoverX)) EUB0001049a EPHB4. To be noted: at 1 µM.

The target in test [7] is Serine/threonine-protein kinase MRCK gamma (Homo sapiens) (UniProt Q6DT37). The test is described as follows: Selectivity interaction (KinomeScan (DiscoverX)) EUB0000655a CDC42BPG. To be noted: at 10 µM.
In test [8] the target is Cyclin-dependent kinase 7 (Homo sapiens, UniProt P50613). The test is described as follows: Selectivity interaction (KinomeScan (DiscoverX)) EUB0001079a CDK7. The note with it: at 1 µM.
Test [9] concerns the target T4, Dual specificity mitogen-activated protein kinase kinase 6 (Homo sapiens) (UniProt P52564).
T4 sequence (whole entry): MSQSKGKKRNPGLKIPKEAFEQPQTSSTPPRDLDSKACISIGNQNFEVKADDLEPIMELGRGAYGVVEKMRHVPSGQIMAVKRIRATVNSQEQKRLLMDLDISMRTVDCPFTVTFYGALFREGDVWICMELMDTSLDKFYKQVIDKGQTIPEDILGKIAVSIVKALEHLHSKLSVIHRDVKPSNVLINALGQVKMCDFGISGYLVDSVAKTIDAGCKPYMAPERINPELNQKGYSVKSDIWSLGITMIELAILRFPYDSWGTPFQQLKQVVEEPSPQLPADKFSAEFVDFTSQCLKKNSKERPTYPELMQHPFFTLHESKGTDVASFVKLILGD
Description: Selectivity interaction (Kinase panel (KiNativ target engagement assay in Jurkat cells)) EUB0001635a MAP2K6. The class given is cell-based. To be noted: Selectivity number of off-targets 0.0, Selectivity number of targets 233.0, Source Knowledge https://www.sciencedirect.com/science/article/pii/S2451945619300674?via%3Dihub, at 1 µM.

Chain of Serine/threonine-protein kinase MRCK gamma (Homo sapiens) (Q6DT37 whole entry): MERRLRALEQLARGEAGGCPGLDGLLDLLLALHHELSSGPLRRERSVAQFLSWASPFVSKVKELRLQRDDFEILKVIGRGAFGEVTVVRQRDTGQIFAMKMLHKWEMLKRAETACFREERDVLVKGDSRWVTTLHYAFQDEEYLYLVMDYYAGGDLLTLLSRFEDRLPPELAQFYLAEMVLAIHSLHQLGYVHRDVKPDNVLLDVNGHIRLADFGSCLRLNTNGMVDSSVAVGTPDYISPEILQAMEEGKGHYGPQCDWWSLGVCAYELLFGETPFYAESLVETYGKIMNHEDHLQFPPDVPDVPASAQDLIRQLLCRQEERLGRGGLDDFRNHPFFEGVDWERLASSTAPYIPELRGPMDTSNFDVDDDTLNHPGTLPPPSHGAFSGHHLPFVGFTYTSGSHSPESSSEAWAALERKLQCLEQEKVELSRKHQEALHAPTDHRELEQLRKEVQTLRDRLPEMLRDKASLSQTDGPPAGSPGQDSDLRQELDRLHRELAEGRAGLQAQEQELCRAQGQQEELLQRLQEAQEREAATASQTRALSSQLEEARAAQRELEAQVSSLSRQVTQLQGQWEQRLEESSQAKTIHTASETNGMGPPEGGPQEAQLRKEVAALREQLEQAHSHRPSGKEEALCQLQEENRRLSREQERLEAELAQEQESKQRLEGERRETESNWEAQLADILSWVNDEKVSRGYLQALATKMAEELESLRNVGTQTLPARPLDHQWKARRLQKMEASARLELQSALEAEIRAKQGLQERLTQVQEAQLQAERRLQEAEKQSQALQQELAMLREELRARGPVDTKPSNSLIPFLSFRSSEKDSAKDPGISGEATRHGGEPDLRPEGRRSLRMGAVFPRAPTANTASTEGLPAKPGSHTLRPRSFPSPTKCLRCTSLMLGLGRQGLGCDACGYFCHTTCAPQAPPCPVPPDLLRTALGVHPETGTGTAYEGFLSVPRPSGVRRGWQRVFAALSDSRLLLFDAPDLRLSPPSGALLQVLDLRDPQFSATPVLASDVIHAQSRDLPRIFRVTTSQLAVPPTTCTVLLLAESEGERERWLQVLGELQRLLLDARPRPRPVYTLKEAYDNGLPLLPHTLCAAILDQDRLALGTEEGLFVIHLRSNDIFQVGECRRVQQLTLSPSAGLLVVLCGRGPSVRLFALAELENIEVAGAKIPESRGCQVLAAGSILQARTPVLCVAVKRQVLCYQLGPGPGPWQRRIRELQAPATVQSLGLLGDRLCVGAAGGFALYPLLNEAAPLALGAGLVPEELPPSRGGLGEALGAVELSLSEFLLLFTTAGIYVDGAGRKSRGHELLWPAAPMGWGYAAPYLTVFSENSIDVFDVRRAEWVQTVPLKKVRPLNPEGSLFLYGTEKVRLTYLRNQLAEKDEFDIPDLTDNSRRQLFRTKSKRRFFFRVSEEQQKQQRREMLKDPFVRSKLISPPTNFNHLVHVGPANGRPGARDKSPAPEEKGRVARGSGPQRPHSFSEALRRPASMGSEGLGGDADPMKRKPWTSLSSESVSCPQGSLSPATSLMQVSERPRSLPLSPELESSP
Chain of Cyclin-dependent kinase 7 (P50613 whole entry): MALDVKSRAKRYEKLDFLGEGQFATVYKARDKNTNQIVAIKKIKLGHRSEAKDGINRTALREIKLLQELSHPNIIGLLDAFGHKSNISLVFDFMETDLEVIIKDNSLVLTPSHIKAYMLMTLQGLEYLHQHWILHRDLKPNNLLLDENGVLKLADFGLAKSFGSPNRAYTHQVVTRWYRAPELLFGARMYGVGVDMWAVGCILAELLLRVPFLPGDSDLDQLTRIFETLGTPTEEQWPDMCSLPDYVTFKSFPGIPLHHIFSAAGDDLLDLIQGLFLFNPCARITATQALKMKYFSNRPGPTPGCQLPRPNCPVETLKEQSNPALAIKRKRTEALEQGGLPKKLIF
Chain of Macrophage colony-stimulating factor 1 receptor (Homo sapiens) (P07333 whole entry): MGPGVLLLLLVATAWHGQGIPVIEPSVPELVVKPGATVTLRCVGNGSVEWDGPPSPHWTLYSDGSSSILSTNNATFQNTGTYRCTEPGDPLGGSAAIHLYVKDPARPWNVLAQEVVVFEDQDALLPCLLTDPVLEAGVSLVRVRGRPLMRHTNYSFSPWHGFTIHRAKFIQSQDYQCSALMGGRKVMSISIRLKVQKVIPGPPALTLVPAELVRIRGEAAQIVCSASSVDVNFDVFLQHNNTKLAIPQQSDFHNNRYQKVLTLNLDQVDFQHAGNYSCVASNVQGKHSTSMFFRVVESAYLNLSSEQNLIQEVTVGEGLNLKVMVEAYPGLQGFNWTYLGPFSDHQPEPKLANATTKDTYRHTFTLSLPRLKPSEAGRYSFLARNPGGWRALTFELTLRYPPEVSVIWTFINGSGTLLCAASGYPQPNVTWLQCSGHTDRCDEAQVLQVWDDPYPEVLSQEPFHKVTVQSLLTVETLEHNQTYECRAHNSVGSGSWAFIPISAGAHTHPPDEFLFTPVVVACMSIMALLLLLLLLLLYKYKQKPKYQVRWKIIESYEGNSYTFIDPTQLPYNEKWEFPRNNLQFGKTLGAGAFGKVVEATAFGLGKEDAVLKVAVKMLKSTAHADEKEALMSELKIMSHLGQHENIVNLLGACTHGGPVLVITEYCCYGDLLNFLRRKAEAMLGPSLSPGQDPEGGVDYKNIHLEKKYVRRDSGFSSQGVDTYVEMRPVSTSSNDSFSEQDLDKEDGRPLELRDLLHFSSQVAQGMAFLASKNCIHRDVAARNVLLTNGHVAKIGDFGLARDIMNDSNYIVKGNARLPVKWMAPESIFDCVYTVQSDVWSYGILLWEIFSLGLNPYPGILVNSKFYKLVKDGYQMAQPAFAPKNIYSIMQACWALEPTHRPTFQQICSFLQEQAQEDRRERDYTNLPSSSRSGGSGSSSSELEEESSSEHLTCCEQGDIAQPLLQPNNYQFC
Chain of Tyrosine-protein kinase ABL1 (P00519 whole entry): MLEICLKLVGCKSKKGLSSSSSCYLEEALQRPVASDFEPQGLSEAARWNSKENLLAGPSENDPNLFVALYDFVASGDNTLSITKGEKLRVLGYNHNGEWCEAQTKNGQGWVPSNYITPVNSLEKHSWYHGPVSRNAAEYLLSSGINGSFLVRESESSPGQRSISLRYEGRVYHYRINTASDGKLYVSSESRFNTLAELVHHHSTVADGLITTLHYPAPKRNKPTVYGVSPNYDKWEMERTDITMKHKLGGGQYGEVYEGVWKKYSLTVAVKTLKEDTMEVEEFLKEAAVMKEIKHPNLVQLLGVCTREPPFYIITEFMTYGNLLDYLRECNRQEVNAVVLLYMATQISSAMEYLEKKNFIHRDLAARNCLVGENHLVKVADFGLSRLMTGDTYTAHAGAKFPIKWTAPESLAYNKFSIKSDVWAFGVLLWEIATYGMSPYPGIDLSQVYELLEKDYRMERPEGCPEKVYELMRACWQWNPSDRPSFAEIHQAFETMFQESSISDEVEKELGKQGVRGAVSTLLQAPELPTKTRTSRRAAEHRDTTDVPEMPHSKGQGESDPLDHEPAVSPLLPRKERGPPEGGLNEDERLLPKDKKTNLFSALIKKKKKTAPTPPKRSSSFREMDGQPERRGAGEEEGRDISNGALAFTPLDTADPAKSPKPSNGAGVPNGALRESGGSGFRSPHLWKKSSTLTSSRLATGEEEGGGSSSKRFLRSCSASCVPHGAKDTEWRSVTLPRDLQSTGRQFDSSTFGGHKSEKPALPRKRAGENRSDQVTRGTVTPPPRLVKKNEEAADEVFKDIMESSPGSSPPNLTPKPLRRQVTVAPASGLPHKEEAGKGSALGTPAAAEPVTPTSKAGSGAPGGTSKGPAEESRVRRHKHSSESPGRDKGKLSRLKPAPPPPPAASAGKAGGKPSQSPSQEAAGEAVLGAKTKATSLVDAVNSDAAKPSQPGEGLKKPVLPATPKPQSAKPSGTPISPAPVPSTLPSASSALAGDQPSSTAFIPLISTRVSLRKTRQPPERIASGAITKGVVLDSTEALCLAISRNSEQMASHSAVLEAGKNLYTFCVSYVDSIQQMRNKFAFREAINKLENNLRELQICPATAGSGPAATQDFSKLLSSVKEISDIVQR
Chain of Mitogen-activated protein kinase kinase kinase 8 (P41279 whole entry): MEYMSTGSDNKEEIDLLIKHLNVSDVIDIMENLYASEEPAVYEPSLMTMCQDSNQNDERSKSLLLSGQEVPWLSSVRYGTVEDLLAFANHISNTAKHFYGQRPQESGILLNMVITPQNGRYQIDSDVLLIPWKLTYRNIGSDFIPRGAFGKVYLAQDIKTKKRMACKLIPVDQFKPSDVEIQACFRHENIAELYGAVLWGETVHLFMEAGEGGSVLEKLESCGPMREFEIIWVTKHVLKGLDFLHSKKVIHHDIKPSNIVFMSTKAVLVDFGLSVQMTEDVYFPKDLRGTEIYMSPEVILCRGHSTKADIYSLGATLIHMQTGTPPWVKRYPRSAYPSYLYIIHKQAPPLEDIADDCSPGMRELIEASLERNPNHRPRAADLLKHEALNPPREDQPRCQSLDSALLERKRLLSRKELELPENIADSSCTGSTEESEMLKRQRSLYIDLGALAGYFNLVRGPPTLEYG

`O=C(NOC[C@H](O)CO)c1ccc(F)c(F)c1Nc1ccc(I)cc1F`: the % of control in test [1] turned out to be 100%.

`CCc1cc(Nc2nccc(-c3c(-c4ccc(OC)c(C(=O)Nc5c(F)cccc5F)c4)nc4ccccn34)n2)c(OC)cc1N1CCC(N2CCN(S(C)(=O)=O)CC2)CC1` returned a % of inhibition in test [2] of 57%.

`CC[C@@H]1[C@H](F)C(=O)N[C@@H]1COc1nccc2cc(C(N)=O)c(OC)cc12` [ZIMLOVISERTIB] came in with a % of inhibition in [3] of 24.9%.

The molecule `CNCCN1CCC(c2cc(CN(C)C(=O)c3cccc(Oc4ccccc4)c3)ccn2)CC1` registered a % activity in [4] of more than 90%.

`C=CC(=O)Nc1cc(-n2c(=O)ccc3cnc4ccc(-c5ccc(NS(C)(=O)=O)cc5)cc4c32)ccc1C`: the % of control in test [5] (at 1 µM) was 100%; in test [5] (at 10 µM) it was 75%.

In the case of `COc1cc(Nc2nc(C)cc(-c3cnn4nc(OC)ccc34)n2)cc(C(F)(F)F)c1`, the % of control in test [6] is 94%.

As to `CN(C)CCOc1ccc(-c2nc(-c3ccncc3)c(-c3ccc4c(c3)CC/C4=N\O)[nH]2)cc1`, the % of control in test [7] came to 32%.

As to `Nc1cnc(N2CCc3cc(S(=O)(=O)Nc4c(F)cc(Cl)cc4F)cc(N4CCCC4=O)c32)nc1` [TP-020n], in [8], the % of control is 100%.

The molecule `C=CC(=O)Nc1ccc(C(=O)Nc2[nH]nc3c2CN(C(=O)N[C@H](CN(C)C)c2ccccc2)C3(C)C)cc1` yielded a % of engagement in [9] of 2.8%.
